Results reported in patent US10993983B2, “Cyclic peptide epitopes and small-molecule mimics for inducing autophagy” (TRUSTEES OF TUFTS COLLEGE, priority 2016, dated 2021).
*1 amine or outer side, *2 acyl side, *3 side chain or, on linkers, in order; H or OH if unused. Where a SMILES comes first, the peptide text is derived from it. Bridges are numbered along the chain shown (N, C = ends). Where no end group is shown, it is not given here. [ ]: non-standard residue; d: D form. The star is where a group is joined. oXylylene = c1ccc(C[*:2])c(C[*:1])c1; Pent4ynoyl = C#CCCC(=O)*

Key:
[1] = test system: HeLa/GFP-LC3 cells; assay: GFP-LC3 puncta assay with and without bafilomycin A1; assay type: cell-based
Method: (§1) HeLa/GFP-LC3 cells generated as previously shown,^10 treated with peptides for 3 hour as described above. […] After 6 h, mice were sacrificed and fixed by perfusion with 4% PFA in PBS. Tissues were fixed in 4% PFA overnight, 15% sucrose for 4 hours, and 30% sucrose overnight before frozen sections were prepared and used for fluorescence microscopy analysis as described.^16 GFP-LC3 puncta were quantified per 2500 μm^2 of tissue. Animal experiments were approved by the UTSW Institutional Animal Care Use Committee and performed in accordance with institutional guidelines.

[2] = test system: GFP-LC3 transgenic mice; assay: GFP-LC3 puncta in muscle tissue of GFP-LC3 transgenic mice; assay type: in vivo; settings: for autophagy induction in vivo (GFP-LC3 puncta in muscle), result in words: i.p. injection, muscle tissue after 6 hours, Tat-11mer 15 mg/kg, D-(Tat-11mer) 15 mg/kg, DD5-o 15, 30 mg/kg
Method: To show whether Tat-11mer and DD5-o have similar in vivo activity, we tested their ability to induce autophagy in GFP-LC3 transgenic mice^59 as described.^10 Peptides were delivered via intraperitoneal injection, and after 6 hours, muscle tissue was collected. GFP-LC3 puncta were imaged in thin sections and counted by an observer blinded to experimental condition (FIG. 10, a,b).
as §1

[3] = test system: HeLa-htt103Q cells; assay: Htt aggregate assay; assay type: cell-based
Method: Along with proteasomal degradation, autophagy is the major pathway by which aggregated proteins are removed from the cytoplasm.
HeLa-htt103Q cells were cultured as described previously.^60 For the Htt103Q aggregate assay, cells were fixed with 2% PFA in PBS and CFP-positive aggregates […] were counted via fluorescence microscopy by an observer blinded to experimental condition.

[4] = test system: HeLa cells; assay: Autophagy induction judged by p62 and LC3 immunoblots together; assay type: cell-based; design: key to Activity compared to wild-type WT / Activity (μM) 10, single symbol / Activity (μM) 30, single symbol / Activity (μM) 50, single symbol / Activity (μM) 100, single symbol: −: activity not reported; 0: decreased vs. WT; +: similar to WT; ++: modest increase vs. WT; +++: significant increase vs. WT; settings: for concentration at which autophagy induction (p62 degradation and LC3 lipidation) was observed: immunoblot, 3 hour treatment; for Activity (μM) 10, single symbol: 10 μM; for Activity (μM) 30, single symbol: 30 μM; for Activity (μM) 50, single symbol: 50 μM; for Activity (μM) 100, single symbol: 100 μM
In short: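 HeLa cells exposed to peptide (acetyl N-cap, C-terminal amide) for 3 h in acidified OPTI-MEM, then lysed and immunoblotted for p62 and LC3. Activity is the lowest concentration giving both p62 degradation and LC3-I to LC3-II conversion, scored semi-quantitatively.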

[5] = test system: LC3; assay: LC3 marker assay (LC3-I to LC3-II conversion immunoblot); assay type: cell-based; design: key: −: activity not reported; 0: decreased vs. WT; +: similar to WT; ++: modest increase vs. WT; +++: significant increase vs. WT; settings: second symbol; for Activity (μM) 10, LC3 assay activity: 10 μM; for Activity (μM) 30, LC3 assay activity: 30 μM; for Activity (μM) 50, LC3 assay activity: 50 μM; for Activity (μM) 100, LC3 assay activity: 100 μM; for Activity (μM) 30, starred cell, LC3 assay activity: Table 8, *Data taken at 20 instead of 30 μM
[6] = test system: p62; assay: p62 degradation assay (p62/actin immunoblot); assay type: cell-based; design: key: −: activity not reported; 0: decreased vs. WT; +: similar to WT; ++: modest increase vs. WT; +++: significant increase vs. WT; settings: first symbol; for Activity (μM) 10, p62/actin assay activity: 10 μM; for Activity (μM) 30, p62/actin assay activity: 30 μM; for Activity (μM) 50, p62/actin assay activity: 50 μM; for Activity (μM) 100, p62/actin assay activity: 100 μM; for Activity (μM) 30, starred cell, p62/actin assay activity: Table 8, *Data taken at 20 instead of 30 μM
[7] = 5 μM, Table 8, control compound T25
[8] = Table 4, control inactive Tat-Beclin mutant
[9] = Table 4, starred rows (asterisk not explained)

C#CCCC(=O)N[C@H](C(=O)N[C@@H]1CSCc2ccccc2CSC[C@H](C(=O)N[C@@H](Cc2ccccc2)C(=O)N[C@@H](Cc2cnc[nH]2)C(=O)N[C@H](C(=O)N[C@@H](Cc2c[nH]c3ccccc23)C(=O)N[C@@H](Cc2cnc[nH]2)C(N)=O)[C@@H](C)CC)NC(=O)[C@H](C)NC(=O)[C@H](CC(N)=O)NC1=O)C(C)C [DD5-o, (pa)-VcNAcFHIWH] (Pent4ynoyl-V[dC]NA[dC]FHIWH-NH2; linker 2-5 via oXylylene)
concentration at which autophagy was induced (GFP-LC3 puncta) ([1]; 3 hours in serum-free media): 10 µM | autophagy induction in vivo (GFP-LC3 puncta in muscle), result in words [2]: induced autophagy at 15 and 30 mg/kg in a dose-dependent manner | percentage of cells with small htt103Q aggregates and number of small aggregates per cell ([3]; 20 μM): significant decrease | concentration at which autophagy induction (p62 degradation and LC3 lipidation) was observed ([4]; HeLa cells): 20 µM | autophagy induction, result in words ([4]; HeLa cells, p62 and LC3 immunoblots): nearly equal potency

(pa)-VcNAcFHIWH (Pent4ynoyl-V[dC]NA[dC]FHIWH; linker 2-5 via ortho‑xylene (inferred); not fully specified (C-terminus); printed as (pa)-VcNAcFHIWH) [LL5-o, ortho-xylene linker; stereoisomer with two L-cysteines, negative control]
autophagy induction in vivo (GFP-LC3 puncta in muscle), result in words [2]: no effect | clearance of htt103Q aggregates by control peptides ([3]; equimolar concentrations): no significant clearance of aggregates

Tat-11mer: eleven residues derived from Beclin 1, with a Gly-Gly linker and Tat sequence of the N-terminus (SEQ ID NO: 63) (Ac-YGRKKRRQRRRGGVWNATFHIWHD-NH2)
fold more potent activation of autophagy (GFP-LC3 puncta) ([1]; activity at 10 μM similar to DD5-o at 40 μM): roughly 4 fold | in vivo potency relative to full-length Tat-Beclin 1 ([2]; equimolar doses): 2- to 4 fold | autophagy induction in vivo (GFP-LC3 puncta in muscle), result in words [2]: largest increase in autophagosome formation | percentage of cells with small htt103Q aggregates and number of small aggregates per cell ([3]; 10 μM): significant decrease | concentration at which autophagy induction (p62 degradation and LC3 lipidation) was observed ([4]; HeLa cells): 5 µM

VCNATCHIWH [Compound 17]
Activity (μM) 10, LC3 assay activity ([5]; Table 5, control compound T25): 0 | Activity (μM) 10, LC3 assay activity ([5]; Table 6, control DMSO): ++ | Activity (μM) 10, LC3 assay activity ([5]; Table 8, control compound T25): +++ | Activity (μM) 30, LC3 assay activity ([5]; Table 5, control compound T25): 0 | Activity (μM) 30, LC3 assay activity ([5]; Table 6, control DMSO): ++ | Activity (μM) 50, LC3 assay activity ([5]; Table 5, control compound T25): + | Activity (μM) 50, LC3 assay activity ([5]; Table 6, control DMSO): ++ | Activity (μM) 100, LC3 assay activity ([5]; Table 5, control compound T25): 0 | Activity (μM) 100, LC3 assay activity ([5]; Table 6, control DMSO): + | Activity (μM) 30, starred cell, LC3 assay activity [5]: +++/+++* | Activity (μM) 10, p62/actin assay activity ([6]; Table 5, control compound T25): +++ | Activity (μM) 10, p62/actin assay activity ([6]; Table 6, control DMSO): + | Activity (μM) 10, p62/actin assay activity ([6]; Table 8, control compound T25): ++ | Activity (μM) 30, p62/actin assay activity ([6]; Table 5, control compound T25): ++ | Activity (μM) 30, p62/actin assay activity ([6]; Table 6, control DMSO): +++ | Activity (μM) 50, p62/actin assay activity ([6]; Table 5, control compound T25): ++ | Activity (μM) 50, p62/actin assay activity ([6]; Table 6, control DMSO): +++ | Activity (μM) 100, p62/actin assay activity ([6]; Table 5, control compound T25): ++ | Activity (μM) 100, p62/actin assay activity ([6]; Table 6, control DMSO): +++ | Activity (μM) 30, starred cell, p62/actin assay activity [6]: +++/+++* | Activity (μM) 10, single symbol ([4]; Table 5): 0 | Activity (μM) 30, single symbol ([4]; Table 5): ++ | Activity (μM) 50, single symbol ([4]; Table 5): +++ | Activity (μM) 100, single symbol ([4]; Table 5): +++

VFNATFEIWH [Compound T25]
Activity (μM) 5, LC3 assay activity [5, 7]: +++ | Activity (μM) 10, LC3 assay activity ([5]; Table 8, control compound T25): +++ | Activity (μM) 30, starred cell, LC3 assay activity [5]: +++/+++* | Activity (μM) 5, p62/actin assay activity [6, 7]: ++ | Activity (μM) 10, p62/actin assay activity ([6]; Table 8, control compound T25): ++ | Activity (μM) 30, starred cell, p62/actin assay activity [6]: +++/+++* | Activity (μM) 30, single symbol ([4]; Table 7, one symbol only): +++ | Activity compared to wild-type WT ([4]; Tat-linked linear peptides, summation of p62 degradation assay and LC3 marker assay): ++

YGRKKRRQRRR (Human immunodeficiency virus) [Tat, HIV-1 Tat protein transduction domain, reference compound]
Activity (μM) 10, LC3 assay activity [5, 8]: 0/0 | Activity (μM) 30, LC3 assay activity [5, 8]: 0/0 | Activity (μM) 50, LC3 assay activity [5, 8]: + | Activity (μM) 100, LC3 assay activity [5, 8]: 0/0 | Activity (μM) 10, p62/actin assay activity [6, 8]: 0/0 | Activity (μM) 30, p62/actin assay activity [6, 8]: 0/0 | Activity (μM) 50, p62/actin assay activity [6, 8]: 0 | Activity (μM) 100, p62/actin assay activity [6, 8]: 0/0 | Activity (μM) 10, single symbol [4, 9]: 0 | Activity (μM) 30, single symbol [4, 9]: 0 | Activity (μM) 50, single symbol [4, 9]: 0 | Activity (μM) 100, single symbol [4, 9]: 0
